Results published in patent US20060079696A1, “Substituted compounds derived from N-(benzyl)phenylacetamide, preparation and uses” (GENFIT, priority 2004, published 2006).
pIC50: −log10 of the molar value.

Experiments:
[1] = molecular target: T1, ATP-dependent potassium channels (K+ATP) (Rattus norvegicus, UniProt Q09429); assay: [3H]glibenclamide binding to ATP-dependent potassium channels of rat cerebral cortex; conditions: FIG. 2
T1 construct: the potassium channels derive from a rat's cerebral cortex; tissue CEREP; host or cells: rat cerebral cortex
Method in brief: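 Rat cerebral cortex membranes incubated 1 h at 22° C with 0.1 nM [3H]glibenclamide; nonspecific binding defined with 1 μM unlabelled glibenclamide. Compounds tested at 3–300 nM; values are percent inhibition of specific binding.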

Male Sprague-Dawley rats = assay: Glycemia and insulinemia after oral administration in fasted rats; type: in vivo, rat
Source text: In normal animals (as in man), the consequence of the administration of insulinotropic compounds is a significant increase in the plasmatic level of insulin. This induced hyperinsulinemia induces a reduction in glycemia. This example studies the evolution of glycemia and of insulinemia following oral administration of the inventive compounds in rats: the insulinotropic action of the compounds in vivo should induce a significant decrease of glycemia.
Male Sprague-Dawley rats (300-320 g) (CERJ—Le Genest St Isle-France) were used in order to carry out this experiment. The rats were fed with a standard diet of granular material; they had free access to food and drink and were kept in individual, ventilated cages in a 12 hr/12 hr light/dark rhythm. The animals were deprived of food for 16 hours prior to the experiment.
The compound was suspended in an aqueous carboxymethylcellulose solution (Sigma C4888) at 1% containing 0.1% Tween80 (Sigma P8074). The animals of the control group received the vehicle alone. The treated animals received a single administration of the compound (the suspension was administered by gavage at the rate of 10 ml/kg). Each group was made up of 11 animals. A 1st blood sample was taken by puncturing the retro-orbital sinus of the animals under volatile isoflurane anaesthesia: this sample makes up the initial time of the experiment. The substance or the vehicle were immediately administered to the animals by gavage, and blood samples were taken over time.
The animals' glycemia was measured in real time using a glucometer (Glucotrend2-Roche Diagnostic-France). The insulinemias were measured using an ELISA kit (Insulin Elisa Kit—Crystal Chem. USA). The method used was of the ELISA type: plasmatic insulin was specifically bound to anti-insulin monoclonal antibodies immobilised on the microtitration plate; simultaneously, an anti-insulin polyclonal guinea pig antibody was added to the reaction. The revelation of the reaction was guaranteed by an antibody coupled to peroxidase. These antibodies bind specifically to the guinea pig's immunoglobulins. The production of oxidised chromogen causes an increase in absorbance in proportion to the quantity of insulin present in the sample.

[2] = tested on: isolated human pancreatic islets; assay: Insulin secretion by isolated human pancreatic islets; type: cell-based; conditions: 1 hour incubation
Procedure: Isolated islets of Langerhans were put together with compounds according to the invention. They were incubated for one hour, and then the supernatant was taken off. The insulin contained in the supernatant (which corresponds to the insulin secreted by the islets over 1 hr) was titrated. It was compared to the basal secretion of insulin, i.e. to the quantity of insulin secreted by the islets over 1 hour in the absence of a compound. The higher the induced insulin/basal insulin ratio, the stronger the insulinotropic potential of the compound.
This study was carried out in the cellular therapy of diabetes laboratory led by Professor Pattou (INSERM ERIT-M 0106, Faculty of medicine of Lille, France (59)). The protocols for the extraction of islets and culture are published (Riachy, Vandewalle et al. 2001). The islets were cultured in a CMRL1066 (Gibco BRL) medium containing 5.5 mmol/l glucose. They were put together with the compounds (+0.001% DMSO). The insulin secreted was measured after 1 hour incubation (titration of the supernatant after centrifugation and extraction as described in the reference) according to a radioimmunological titration method (BI-INSULIN IRMA kit, Sanofi Diagnostics Pasteur). Each condition was applied to 5 independent islets preparations, each containing 40 equivalent islets (40 IE). […]

T1 sequence (Q09429 whole entry): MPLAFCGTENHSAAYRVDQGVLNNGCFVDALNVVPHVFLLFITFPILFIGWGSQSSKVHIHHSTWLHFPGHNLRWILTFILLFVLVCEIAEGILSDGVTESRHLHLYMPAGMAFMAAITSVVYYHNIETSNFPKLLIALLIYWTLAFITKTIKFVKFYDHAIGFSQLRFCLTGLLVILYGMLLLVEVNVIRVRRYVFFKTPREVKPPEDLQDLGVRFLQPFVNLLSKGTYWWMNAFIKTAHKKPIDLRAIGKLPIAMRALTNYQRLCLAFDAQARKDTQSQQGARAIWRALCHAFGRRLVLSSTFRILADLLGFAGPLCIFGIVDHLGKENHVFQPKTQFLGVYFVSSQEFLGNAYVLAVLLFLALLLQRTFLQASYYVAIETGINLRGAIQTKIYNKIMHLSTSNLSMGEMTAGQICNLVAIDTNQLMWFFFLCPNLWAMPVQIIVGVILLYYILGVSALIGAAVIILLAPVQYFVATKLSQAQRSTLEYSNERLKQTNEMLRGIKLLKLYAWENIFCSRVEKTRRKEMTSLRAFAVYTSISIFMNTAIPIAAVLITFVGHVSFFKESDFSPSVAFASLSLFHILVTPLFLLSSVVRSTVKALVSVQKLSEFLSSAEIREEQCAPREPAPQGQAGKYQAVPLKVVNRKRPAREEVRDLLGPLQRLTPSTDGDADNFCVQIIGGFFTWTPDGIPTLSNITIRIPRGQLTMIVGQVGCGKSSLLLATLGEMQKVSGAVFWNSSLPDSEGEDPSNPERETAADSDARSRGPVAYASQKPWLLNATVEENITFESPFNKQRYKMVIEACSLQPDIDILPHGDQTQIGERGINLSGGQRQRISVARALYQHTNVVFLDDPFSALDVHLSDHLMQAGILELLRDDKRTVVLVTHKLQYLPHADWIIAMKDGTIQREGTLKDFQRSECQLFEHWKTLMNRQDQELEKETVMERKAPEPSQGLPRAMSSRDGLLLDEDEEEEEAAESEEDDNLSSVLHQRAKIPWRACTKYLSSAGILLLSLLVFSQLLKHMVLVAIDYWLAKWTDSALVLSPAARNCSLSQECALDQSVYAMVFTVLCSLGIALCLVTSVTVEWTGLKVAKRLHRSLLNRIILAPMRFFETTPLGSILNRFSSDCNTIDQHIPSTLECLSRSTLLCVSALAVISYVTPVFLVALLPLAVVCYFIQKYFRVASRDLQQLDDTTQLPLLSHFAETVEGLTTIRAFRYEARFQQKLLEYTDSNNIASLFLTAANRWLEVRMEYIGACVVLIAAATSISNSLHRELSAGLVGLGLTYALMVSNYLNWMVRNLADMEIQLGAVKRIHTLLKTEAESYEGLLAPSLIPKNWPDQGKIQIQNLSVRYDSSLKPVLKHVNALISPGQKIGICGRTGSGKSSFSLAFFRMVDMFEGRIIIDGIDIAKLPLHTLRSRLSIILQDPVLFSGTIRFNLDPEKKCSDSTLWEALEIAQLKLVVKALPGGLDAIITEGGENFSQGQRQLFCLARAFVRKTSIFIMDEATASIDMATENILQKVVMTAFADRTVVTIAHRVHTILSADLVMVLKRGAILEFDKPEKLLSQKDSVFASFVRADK
T1 sequence (P70673 whole entry partner): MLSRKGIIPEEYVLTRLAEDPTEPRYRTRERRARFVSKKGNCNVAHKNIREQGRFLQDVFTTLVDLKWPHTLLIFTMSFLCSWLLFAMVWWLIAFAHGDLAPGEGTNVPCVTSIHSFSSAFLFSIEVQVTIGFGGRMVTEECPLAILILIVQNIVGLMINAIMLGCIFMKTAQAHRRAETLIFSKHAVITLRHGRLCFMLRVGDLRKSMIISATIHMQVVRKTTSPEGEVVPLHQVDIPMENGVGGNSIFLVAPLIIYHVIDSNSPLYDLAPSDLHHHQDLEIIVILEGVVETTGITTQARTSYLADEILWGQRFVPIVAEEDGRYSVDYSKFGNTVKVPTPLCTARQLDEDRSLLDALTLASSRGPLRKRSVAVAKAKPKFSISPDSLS

CC(C)CC(NC(=O)Cc1ccc(OC(C)(C)C(=O)O)cc1)c1ccccc1N1CCCCC1 (stereo not drawn) [Compound 1, 2-[4-[1-(3-methyl-1-(2-(1-piperidinyl)phenyl)butyl)aminocarbonylmethyl]phenoxy]-2-methylpropanoic acid]
pIC50 [1]: 7.85 | decrease in glycemia between T=0 and T=120 min (Male Sprague-Dawley rats; 50 mpk, oral, fasted rat): 48% | plasmatic insulin peak, time following administration (Male Sprague-Dawley rats; 50 mpk, oral, fasted rat): 15 min | hypoglycemia kinetics and amplitude compared with compound 52 (Male Sprague-Dawley rats; comparison of FIGS. 5a and 5c): faster and more intense | insulinotropic activity on human islets ([2]; 0.1 μM): not having any significant insulinotropic activity | insulin secreted in 1 hour versus non-treated islets ([2]; 1 μM): ~4 times
